Laboratory results: patent US10167262B2, “Herbicidal substituted 3-arylpyrazoles” (FMC CORPORATION, priority 2014, dated 2019)

Legend:
Format in all cases: in vivo
[1] = system: waterhemp_RES2, (ALS & HPPD resistant common waterhemp, Amaranthus rudis); assay: Test E postemergence greenhouse test, plant response rating 0-100; conditions: scale 0 to 100
Procedure: (§1) At the same time, plants from these crop and weed species and also waterhemp_RES1, (ALS & Triazine resistant common waterhemp, Amaranthus rudis), and waterhemp_RES2, (ALS & HPPD resistant common waterhemp, Amaranthus rudis) were planted in pots containing Redi-Earth® planting medium (Scotts Company, 14111 Scottslawn Road, Marysville, Ohio 43041) comprising spaghnum peat moss, vermiculite, wetting agent and starter nutrients were treated with postemergence applications of test chemicals formulated in the same manner. Plants ranged in height from 2 to 18 cm for postemergence treatments (1- to 4-leaf stage).
(§2) Treated plants and controls were maintained in a greenhouse for 14 to 21 days, after which time all species were compared to controls and visually evaluated. Plant response ratings, summarized in Table E, are based on a scale of 0 to 100 where 0 is no effect and 100 is complete control. A dash (-) response means no test result.

[2] = system: Italian ryegrass (Lolium multiflorum); assay: Test E pre-/postemergence greenhouse test, plant response rating 0-100; conditions: Postemergence, scale 0 to 100
From the text: (§3) Seeds of plant species selected from corn (Zea mays), soybean (Glycine max), velvetleaf (Abutilon theophrasti), lambsquarters (Chenopodium album), wild poinsettia (Euphorbia heterophylla), palmer pigweed (Amaranthus palmeri), waterhemp (common waterhemp, Amaranthus rudis), surinam grass (Brachiaria decumbens), large (Lg) crabgrass (Digitaria sanguinalis), Brazilian crabgrass (Digitaria horizontalis), fall panicum (Panicum dichotomiflorum), giant foxtail (Setaria faberii), green foxtail (Setaria viridis), goosegrass (Eleusine indica), johnsongrass (Sorghum halepense), ragweed (common ragweed, Ambrosia elatior), barnyardgrass (Echinochloa crus-galli), sandbur (southern sandbur, Cenchrus echinatus), arrowleaf sida (Sida rhombifolia), Italian ryegrass (Lolium multiflorum), dayflower (Virginia (VA) dayflower, Commelina virginica), field bindweed (Convolvulus arvensis), morningglory (Ipomoea coccinea), nightshade (eastern black nightshade, Solanum ptycanthum), kochia (Kochia scoparia), yellow nutsedge (Cyperus esculentus), smartweed (ladysthumb smartweed, Polygonum persicaria), cocklebur (common cocklebur, Xanthium strumarium), and hairy beggarticks (Bidens pilosa), were planted into a silt loam soil and treated preemergence with test chemicals formulated in a non-phytotoxic solvent mixture which included a surfactant.
as §1, §2

[3] = system: waterhemp (common waterhemp, Amaranthus rudis); assay: as above; conditions: Postemergence, scale 0 to 100
From the text: as §3, §1, §2

[4] = system: dayflower (Virginia (VA) dayflower, Commelina virginica); assay: as above; conditions: Postemergence, scale 0 to 100
From the text: as §3, §1, §2

[5] = system: Brazilian crabgrass (Digitaria horizontalis); assay: as above; conditions: Postemergence, scale 0 to 100
From the text: as §3, §1, §2

corn (Zea mays) = assay: as above; conditions: Postemergence, scale 0 to 100
From the text: as §3, §1, §2

[6] = system: wild poinsettia (Euphorbia heterophylla); assay: as above; conditions: Postemergence, scale 0 to 100
From the text: as §3, §1, §2

[7] = system: fall panicum (Panicum dichotomiflorum); assay: as above; conditions: Postemergence, scale 0 to 100
From the text: as §3, §1, §2

[8] = system: palmer pigweed (Amaranthus palmeri); assay: as above; conditions: Postemergence, scale 0 to 100
From the text: as §3, §1, §2

[9] = system: field bindweed (Convolvulus arvensis); assay: as above; conditions: Postemergence, scale 0 to 100
From the text: as §3, §1, §2

[10] = system: arrowleaf sida (Sida rhombifolia); assay: as above; conditions: Postemergence
From the text: as §3, §1, §2

ON=C(c1ccccc1)c1c[nH]nc1-c1cc(Cl)cc(Cl)c1 [Compound 50]
50: Plant response rating, Arrowleaf Sida ([10]; 31 g ai/ha, scale 0 to 100) | Plant response rating, Arrowleaf Sida ([10]; 62 g ai/ha, scale 0 to 100)
75: Plant response rating, Waterhemp_RES2 ([1]; 31 g ai/ha) | Plant response rating, Pigweed, Palmer ([8]; 62 g ai/ha)
5: Plant response rating, Field Bindweed ([9]; 500 g ai/ha)
70: Plant response rating, Arrowleaf Sida ([10]; 250 g ai/ha, scale 0 to 100)
98: Plant response rating, Pigweed, Palmer ([8]; 250 g ai/ha) | Plant response rating, Pigweed, Palmer ([8]; 500 g ai/ha)
100: Plant response rating, Waterhemp_RES2 ([1]; 125 g ai/ha) | Plant response rating, Waterhemp_RES2 ([1]; 250 g ai/ha) | Plant response rating, Waterhemp_RES2 ([1]; 500 g ai/ha) | Plant response rating, Waterhemp ([3]; 250 g ai/ha) | Plant response rating, Waterhemp ([3]; 500 g ai/ha)
30: Plant response rating, Poinsettia, Wild ([6]; 500 g ai/ha)
0: Plant response rating, Ryegrass, Italian ([2]; 31 g ai/ha) | Plant response rating, Ryegrass, Italian ([2]; 62 g ai/ha) | Plant response rating, Ryegrass, Italian ([2]; 125 g ai/ha) | Plant response rating, Ryegrass, Italian ([2]; 250 g ai/ha) | Plant response rating, Ryegrass, Italian ([2]; 500 g ai/ha) | Plant response rating, Dayflower, VA ([4]; 31 g ai/ha) | Plant response rating, Dayflower, VA ([4]; 62 g ai/ha) | Plant response rating, Dayflower, VA ([4]; 125 g ai/ha) | Plant response rating, Dayflower, VA ([4]; 250 g ai/ha) | Plant response rating, Dayflower, VA ([4]; 500 g ai/ha) | Plant response rating, Crabgrass, Brazil ([5]; 31 g ai/ha) | Plant response rating, Crabgrass, Brazil ([5]; 62 g ai/ha) | Plant response rating, Crabgrass, Brazil ([5]; 125 g ai/ha) | Plant response rating, Crabgrass, Brazil ([5]; 250 g ai/ha) | Plant response rating, Crabgrass, Brazil ([5]; 500 g ai/ha) | Plant response rating, Corn (corn (Zea mays); 31 g ai/ha) | Plant response rating, Corn (corn (Zea mays); 62 g ai/ha) | Plant response rating, Corn (corn (Zea mays); 125 g ai/ha) | Plant response rating, Corn (corn (Zea mays); 250 g ai/ha) | Plant response rating, Corn (corn (Zea mays); 500 g ai/ha) | Plant response rating, Poinsettia, Wild ([6]; 31 g ai/ha) | Plant response rating, Poinsettia, Wild ([6]; 62 g ai/ha) | Plant response rating, Poinsettia, Wild ([6]; 125 g ai/ha) | Plant response rating, Panicum, Fall ([7]; 31 g ai/ha) | Plant response rating, Panicum, Fall ([7]; 62 g ai/ha) | Plant response rating, Panicum, Fall ([7]; 125 g ai/ha) | Plant response rating, Panicum, Fall ([7]; 250 g ai/ha) | Plant response rating, Panicum, Fall ([7]; 500 g ai/ha) | Plant response rating, Field Bindweed ([9]; 31 g ai/ha) | Plant response rating, Field Bindweed ([9]; 62 g ai/ha) | Plant response rating, Field Bindweed ([9]; 125 g ai/ha) | Plant response rating, Field Bindweed ([9]; 250 g ai/ha)
80: Plant response rating, Waterhemp ([3]; 31 g ai/ha) | Plant response rating, Pigweed, Palmer ([8]; 125 g ai/ha) | Plant response rating, Arrowleaf Sida ([10]; 500 g ai/ha, scale 0 to 100 (0 no effect, 100 complete control))
65: Plant response rating, Pigweed, Palmer ([8]; 31 g ai/ha)
60: Plant response rating, Arrowleaf Sida ([10]; 125 g ai/ha, scale 0 to 100)
90: Plant response rating, Waterhemp ([3]; 125 g ai/ha)
20: Plant response rating, Poinsettia, Wild ([6]; 250 g ai/ha)

C=CCn1cc(C(=O)c2ccccc2)c(-c2cc(Cl)cc(Cl)c2)n1 [Compound 60]
25: Plant response rating, Waterhemp_RES2 ([1]; 250 g ai/ha) | Plant response rating, Waterhemp ([3]; 62 g ai/ha) | Plant response rating, Waterhemp ([3]; 125 g ai/ha) | Plant response rating, Arrowleaf Sida ([10]; 16 g ai/ha, scale 0 to 100)
20: Plant response rating, Waterhemp_RES2 ([1]; 62 g ai/ha) | Plant response rating, Waterhemp_RES2 ([1]; 125 g ai/ha) | Plant response rating, Waterhemp ([3]; 31 g ai/ha)
35: Plant response rating, Pigweed, Palmer ([8]; 125 g ai/ha) | Plant response rating, Pigweed, Palmer ([8]; 250 g ai/ha) | Plant response rating, Arrowleaf Sida ([10]; 31 g ai/ha, scale 0 to 100) | Plant response rating, Arrowleaf Sida ([10]; 62 g ai/ha, scale 0 to 100)
45: Plant response rating, Arrowleaf Sida ([10]; 125 g ai/ha, scale 0 to 100) | Plant response rating, Arrowleaf Sida ([10]; 250 g ai/ha, scale 0 to 100)
30: Plant response rating, Waterhemp ([3]; 250 g ai/ha) | Plant response rating, Pigweed, Palmer ([8]; 62 g ai/ha)
0: Plant response rating, Ryegrass, Italian ([2]; 31 g ai/ha) | Plant response rating, Ryegrass, Italian ([2]; 62 g ai/ha) | Plant response rating, Ryegrass, Italian ([2]; 125 g ai/ha) | Plant response rating, Ryegrass, Italian ([2]; 250 g ai/ha) | Plant response rating, Dayflower, VA ([4]; 16 g ai/ha) | Plant response rating, Dayflower, VA ([4]; 31 g ai/ha) | Plant response rating, Dayflower, VA ([4]; 62 g ai/ha) | Plant response rating, Dayflower, VA ([4]; 125 g ai/ha) | Plant response rating, Dayflower, VA ([4]; 250 g ai/ha) | Plant response rating, Crabgrass, Brazil ([5]; 16 g ai/ha) | Plant response rating, Crabgrass, Brazil ([5]; 31 g ai/ha) | Plant response rating, Crabgrass, Brazil ([5]; 62 g ai/ha) | Plant response rating, Crabgrass, Brazil ([5]; 125 g ai/ha) | Plant response rating, Crabgrass, Brazil ([5]; 250 g ai/ha) | Plant response rating, Corn (corn (Zea mays); 16 g ai/ha) | Plant response rating, Corn (corn (Zea mays); 31 g ai/ha) | Plant response rating, Corn (corn (Zea mays); 62 g ai/ha) | Plant response rating, Corn (corn (Zea mays); 125 g ai/ha) | Plant response rating, Corn (corn (Zea mays); 250 g ai/ha) | Plant response rating, Poinsettia, Wild ([6]; 31 g ai/ha) | Plant response rating, Poinsettia, Wild ([6]; 62 g ai/ha) | Plant response rating, Poinsettia, Wild ([6]; 125 g ai/ha) | Plant response rating, Poinsettia, Wild ([6]; 250 g ai/ha) | Plant response rating, Panicum, Fall ([7]; 31 g ai/ha) | Plant response rating, Panicum, Fall ([7]; 62 g ai/ha) | Plant response rating, Panicum, Fall ([7]; 125 g ai/ha) | Plant response rating, Panicum, Fall ([7]; 250 g ai/ha) | Plant response rating, Field Bindweed ([9]; 16 g ai/ha) | Plant response rating, Field Bindweed ([9]; 31 g ai/ha) | Plant response rating, Field Bindweed ([9]; 62 g ai/ha) | Plant response rating, Field Bindweed ([9]; 125 g ai/ha) | Plant response rating, Field Bindweed ([9]; 250 g ai/ha)
